{
  "source": "paper PMC5513037",
  "about": "“Examining the influence of specificity ligands and ATP-competitive ligands on the overall effectiveness of bivalent kinase inhibitors” (Proteome Science, 2017)",
  "assay_in_all_cases": "KAM-matrix competition in K562 lysate;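 as to 0.001 uM KAM: median log10 fold change of treatment over DMSO control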;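 as to 0.01 uM KAM: median log10 fold change of treatment over DMSO control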;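 as to 0.1 uM KAM: median log10 fold change of treatment over DMSO control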;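 as to 1 uM KAM: median log10 fold change of treatment over DMSO control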;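 as to 10 uM KAM: median log10 fold change of treatment over DMSO control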",
  "assay_type_in_all_cases": "binding",
  "key": {"NPR2": {"biological_target": "T1, NPR2 (Homo sapiens, UniProt P20594)", "T1 construct": "endogenous in cells; host or cells: K562", "T1 sequence (P20594 23-1047)": "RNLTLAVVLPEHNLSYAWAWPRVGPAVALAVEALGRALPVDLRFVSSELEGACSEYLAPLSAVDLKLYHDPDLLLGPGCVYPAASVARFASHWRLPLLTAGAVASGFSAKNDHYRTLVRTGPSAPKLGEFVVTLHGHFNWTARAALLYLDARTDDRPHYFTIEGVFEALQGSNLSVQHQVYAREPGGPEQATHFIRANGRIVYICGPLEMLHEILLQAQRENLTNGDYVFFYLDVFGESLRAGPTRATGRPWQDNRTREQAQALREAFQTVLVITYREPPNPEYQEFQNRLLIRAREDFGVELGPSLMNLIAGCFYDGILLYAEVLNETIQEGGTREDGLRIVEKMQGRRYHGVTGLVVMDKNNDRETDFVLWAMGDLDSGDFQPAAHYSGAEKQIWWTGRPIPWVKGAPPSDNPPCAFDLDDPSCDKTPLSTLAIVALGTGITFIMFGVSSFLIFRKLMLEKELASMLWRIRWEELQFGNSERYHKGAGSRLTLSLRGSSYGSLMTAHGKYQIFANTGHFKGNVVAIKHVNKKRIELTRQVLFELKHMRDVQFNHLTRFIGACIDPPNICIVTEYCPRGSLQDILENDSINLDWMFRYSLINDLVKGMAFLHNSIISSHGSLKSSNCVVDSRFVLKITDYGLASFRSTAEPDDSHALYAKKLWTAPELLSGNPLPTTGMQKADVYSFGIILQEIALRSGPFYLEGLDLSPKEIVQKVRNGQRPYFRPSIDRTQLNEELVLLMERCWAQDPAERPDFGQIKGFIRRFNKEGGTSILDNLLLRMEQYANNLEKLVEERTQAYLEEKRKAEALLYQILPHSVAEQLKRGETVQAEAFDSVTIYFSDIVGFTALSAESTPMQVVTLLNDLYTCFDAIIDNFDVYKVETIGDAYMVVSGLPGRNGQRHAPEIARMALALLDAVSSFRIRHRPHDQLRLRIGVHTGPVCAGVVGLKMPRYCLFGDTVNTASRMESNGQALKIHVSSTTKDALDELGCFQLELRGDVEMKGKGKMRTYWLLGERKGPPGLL", "protocol": "(§1) Supplement 12953_2017_125_MOESM1_ESM.zip/MS_Supp Info.xlsx, sheet \"KAM\" | column: 10 uM KAM; 1 uM KAM; 0.1 uM KAM; 0.01 uM KAM; 0.001 uM KAM; RB50"}, "PRKD3": {"biological_target": "T2, PRKD3 (Homo sapiens, UniProt O94806)", "T2 construct": "endogenous in cells; host or cells: K562", "T2 sequence (O94806 1-890)": "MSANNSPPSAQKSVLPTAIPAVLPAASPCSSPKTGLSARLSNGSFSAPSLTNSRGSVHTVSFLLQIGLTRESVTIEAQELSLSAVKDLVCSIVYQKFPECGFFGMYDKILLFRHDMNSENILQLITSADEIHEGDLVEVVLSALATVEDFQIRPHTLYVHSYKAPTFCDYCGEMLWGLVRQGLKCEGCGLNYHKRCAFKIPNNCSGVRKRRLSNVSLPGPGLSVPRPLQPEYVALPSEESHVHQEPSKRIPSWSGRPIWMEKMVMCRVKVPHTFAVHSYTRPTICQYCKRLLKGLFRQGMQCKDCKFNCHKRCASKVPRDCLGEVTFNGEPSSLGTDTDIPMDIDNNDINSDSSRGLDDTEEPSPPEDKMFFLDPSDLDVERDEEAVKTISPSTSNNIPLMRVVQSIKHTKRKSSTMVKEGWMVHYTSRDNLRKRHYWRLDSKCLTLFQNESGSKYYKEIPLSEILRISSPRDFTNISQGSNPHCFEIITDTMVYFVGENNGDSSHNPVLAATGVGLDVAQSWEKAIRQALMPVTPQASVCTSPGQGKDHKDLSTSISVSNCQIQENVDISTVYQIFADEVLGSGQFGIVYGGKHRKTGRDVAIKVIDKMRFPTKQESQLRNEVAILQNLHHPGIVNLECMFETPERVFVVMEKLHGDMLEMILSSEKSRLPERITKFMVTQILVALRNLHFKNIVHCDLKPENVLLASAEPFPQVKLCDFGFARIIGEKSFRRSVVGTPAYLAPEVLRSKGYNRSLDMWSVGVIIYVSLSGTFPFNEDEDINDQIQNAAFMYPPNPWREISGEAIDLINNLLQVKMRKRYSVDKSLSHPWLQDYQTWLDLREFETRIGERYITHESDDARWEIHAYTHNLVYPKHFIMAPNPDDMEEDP", "protocol": "as §1"}, "PDPK1": {"biological_target": "T3, PDPK1 (Homo sapiens, UniProt O15530)", "T3 construct": "endogenous in cells; host or cells: K562", "T3 sequence (O15530 1-556)": "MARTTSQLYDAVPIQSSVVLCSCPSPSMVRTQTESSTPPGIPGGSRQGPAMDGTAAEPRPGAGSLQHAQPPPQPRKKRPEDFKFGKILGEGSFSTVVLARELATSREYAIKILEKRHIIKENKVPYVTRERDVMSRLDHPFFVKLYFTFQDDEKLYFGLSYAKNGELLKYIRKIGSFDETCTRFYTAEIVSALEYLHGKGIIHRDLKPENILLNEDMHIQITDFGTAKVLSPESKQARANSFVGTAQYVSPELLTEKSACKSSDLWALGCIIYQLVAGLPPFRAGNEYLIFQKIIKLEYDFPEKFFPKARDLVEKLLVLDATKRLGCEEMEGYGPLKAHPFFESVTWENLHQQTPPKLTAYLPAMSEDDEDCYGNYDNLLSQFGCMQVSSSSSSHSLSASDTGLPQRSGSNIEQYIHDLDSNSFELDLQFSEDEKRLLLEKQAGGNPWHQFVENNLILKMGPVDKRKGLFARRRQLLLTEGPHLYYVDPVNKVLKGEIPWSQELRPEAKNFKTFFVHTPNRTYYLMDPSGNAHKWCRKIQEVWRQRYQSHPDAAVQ", "protocol": "as §1"}, "[1]": {"settings": "KAM 0.001-10 uM, read-out: RB50 (the source's name)"}},
  "data": [
    {"smiles": "N#CCc1ccc(Nc2nc(NCCCN)cc(Nc3cc(C4CC4)[nH]n3)n2)cc1", "note": "[KAM]", "values": [
      {"measurement": "IC50", "setting": "NPR2; [1]", "value": "> 10", "unit": "µM"},
      {"measurement": "0.001 uM KAM", "setting": "NPR2; relative to 0 uM KAM = 0", "value": -0.04196},
      {"measurement": "0.01 uM KAM", "setting": "NPR2; relative to 0 uM KAM = 0", "value": -0.03427},
      {"measurement": "0.1 uM KAM", "setting": "NPR2; relative to 0 uM KAM = 0", "value": -0.06644},
      {"measurement": "1 uM KAM", "setting": "NPR2; relative to 0 uM KAM = 0", "value": -0.002813},
      {"measurement": "10 uM KAM", "setting": "NPR2; relative to 0 uM KAM = 0", "value": -0.07947},
      {"measurement": "median Log10 fold change", "setting": "PRKD3; 0.001 uM KAM", "value": -0.02816},
      {"measurement": "median Log10 fold change", "setting": "PRKD3; 0.01 uM KAM", "value": -0.02551},
      {"measurement": "median Log10 fold change", "setting": "PRKD3; 0.1 uM KAM", "value": -0.171},
      {"measurement": "median Log10 fold change", "setting": "PRKD3; 1 uM KAM", "value": -0.366},
      {"measurement": "median Log10 fold change", "setting": "PRKD3; 10 uM KAM", "value": -0.539},
      {"measurement": "IC50", "setting": "PRKD3; read-out: RB50 (the source's name)", "value": 633, "unit": "nM"},
      {"measurement": "IC50", "setting": "PDPK1; [1]", "value": "> 10", "unit": "µM"},
      {"measurement": "0.001 uM KAM", "setting": "PDPK1; relative to 0 uM KAM = 0", "value": -0.001927},
      {"measurement": "0.01 uM KAM", "setting": "PDPK1; relative to 0 uM KAM = 0", "value": -0.01199},
      {"measurement": "0.1 uM KAM", "setting": "PDPK1; relative to 0 uM KAM = 0", "value": -0.03413},
      {"measurement": "1 uM KAM", "setting": "PDPK1; relative to 0 uM KAM = 0", "value": -0.1736},
      {"measurement": "10 uM KAM", "setting": "PDPK1; relative to 0 uM KAM = 0", "value": -0.2461}
    ]}
  ]
}
